We go through 3 compounds from US6218546A, “Reagent for the detection and isolation of carbohydrates or glycan receptors” (Roche Diagnostics GmbH, priority 1995, dated 2001).

SMILES strings stand for the structures.

Data set [1] concerns the target T1, digoxigenin-labelled MAA lectin (Maackia amurensis, UniProt P0DKL3).
T1 sequence (P0DKL3 30-278 limits assumed): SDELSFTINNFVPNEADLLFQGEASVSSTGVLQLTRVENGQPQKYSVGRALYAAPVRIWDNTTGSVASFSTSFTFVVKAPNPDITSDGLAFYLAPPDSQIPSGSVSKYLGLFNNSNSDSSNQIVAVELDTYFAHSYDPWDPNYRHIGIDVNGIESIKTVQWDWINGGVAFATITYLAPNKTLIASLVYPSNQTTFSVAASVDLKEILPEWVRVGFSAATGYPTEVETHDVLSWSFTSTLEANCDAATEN
Nature of the data set: Detection of immobilized sugar derivative with digoxigenin-labelled MAA lectin on streptavidin microtitre plate. The format is binding. As to conditions: 0.5-20 pmol/well, read at 405 nm. The method, then: Derivatized N-acetyl-neuraminosyl-2,3-D-lactose in TBS is incubated for 4 h at room temperature on a microtitre plate coated with streptavidin as a model substance to test the standard conditions. After immobilization of the sugar derivative (0.5-20 pmol/well in the microtitre plate; dissolved in TBS) the wells are washed five times with 0.25 ml TBS. In order to bind the digoxigenin-labelled MAA lectin (specific for N-acetyl-neuraminosyl-α(2-3)Gal residues) 1-10 μg of the lectin is dissolved in 1 ml TBSM (TBSM=TBS containing 1 mM MgCl2, 1 mM MnCl2 and 1 mM CaCl2) containing 0.5% blocking reagent (Boehringer Mannheim) and subsequently 0.2 ml of the lectin solution/well is incubated for 1 hour at room temperature while shaking gently. After the lectin has bound the wells are washed five times with 0.25 ml buffer (TBST=TBS containing 0.1% Tween-20®). […] The colour development is read at 405 nm and RT after an incubation period of ca. 20 to 30 min. […]
For the detection of N-acetyl-neuraminosyl-2,3-D-lactose the wells are washed five times with 0.25 ml TBS after immobilization of the sugar derivative (0.5-20 pmol/well in the microtitre plate; dissolved in TBS). […] The colour development is read at 405 nm and RT after an incubation period of ca. 20 to 30 min. […]

For data set [2], the target named is T1, digoxigenin-labelled MAA lectin. The data set can be described thus: Inhibition of digoxigenin-labelled MAA lectin binding to immobilized fetuin sugar derivatives on streptavidin microtitre plate. As to conditions: fetuin sugar derivatives (10 pmol) on the MTP.
In data set [3] the target is digoxigenin-labelled SNA lectin (Sambucus nigra, UniProt Q41358). The format is binding. The conditions noted are these: saccharide added to wells containing SNA as the lectin; fetuin sugar derivatives (10 pmol).
Data set [4] is described as follows: Stability of marker and saccharide conjugates (HPLC analysis). The class given is physicochemical. As to conditions: after one week in MeOH at 25° C.

Sequence of digoxigenin-labelled SNA lectin (Q41358 309-570 limits assumed): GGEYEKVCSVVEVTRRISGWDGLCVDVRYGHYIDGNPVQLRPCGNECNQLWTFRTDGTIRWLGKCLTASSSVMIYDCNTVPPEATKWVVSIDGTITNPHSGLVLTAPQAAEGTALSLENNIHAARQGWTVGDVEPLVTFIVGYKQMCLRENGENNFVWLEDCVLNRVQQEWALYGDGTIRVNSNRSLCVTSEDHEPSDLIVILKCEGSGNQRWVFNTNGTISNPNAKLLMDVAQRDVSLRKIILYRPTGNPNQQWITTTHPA
Sequence of digoxigenin-labelled SNA lectin (Q41358 29-292 partner limits assumed): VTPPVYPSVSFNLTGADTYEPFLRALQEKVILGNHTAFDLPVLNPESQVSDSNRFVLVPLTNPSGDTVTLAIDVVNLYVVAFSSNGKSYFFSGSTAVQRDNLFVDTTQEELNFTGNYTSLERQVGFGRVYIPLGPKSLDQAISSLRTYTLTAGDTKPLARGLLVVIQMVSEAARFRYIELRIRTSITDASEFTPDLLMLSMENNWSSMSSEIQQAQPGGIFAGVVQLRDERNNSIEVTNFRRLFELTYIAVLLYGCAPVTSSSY

Regarding `CC(=O)NC1C(O)CC(OC2C(O)C(CO)OC(OC3C(CO)OC(NNC(=O)NCCNC(=O)c4ccccc4N=Nc4ccc(O)cc4)C(O)C3O)C2O)(C(=O)O)OC1C(O)C(O)CO` (stereo not drawn), the detection limit in data set [1] (conjugate with BNAH (Example 6)) and in data set [1] (conjugate with marker 4 (Example 4)) was 0.5 pmol throughout.
With `CC(=O)NC1C(O)CC(OC2C(O)C(CO)OC(OC3C(CO)OC(O)C(O)C3O)C2O)(C(=O)O)OC1C(O)C(O)CO` [N-acetyl-neuraminosyl-2,3-D-lactose], the “signal strength, % of the value without inhibition” value is “about 50%” in data set [2] (200 pmol added) and “about 15%” in data set [2] (500 pmol added). The “inhibition of lectin signal” value in data set [3] was “no inhibition”.
As to `NNC(=O)NCCNC(=O)c1ccccc1N=Nc1ccc(O)cc1` [marker 4, 2-[2'-(4"-hydroxybenzeneazo)-benzoic acid amido]-ethylsemicarbazide], the “decomposition of the marker” value in data set [4] is “no decomposition”.
